In ChEMBL document CHEMBL1147193, “New 5-substituted thiazolo[3,2-b][1,2,4]triazol-6-ones: synthesis and anticancer evaluation” (2007):

What was measured:
Format in all cases: functional
OVCAR-5 = assay: Growth inhibition of human OVCAR5 cells after 48 hrs by SRB protein assay; settings: OVCAR-5, 48 h
OVCAR-8 = assay: Growth inhibition of human OVCAR8 cells after 48 hrs by SRB protein assay; settings: OVCAR-8, 48 h
SK-OV-3 = assay: Growth inhibition of human SK-OV-3 cells after 48 hrs by SRB protein assay; settings: SK-OV-3, 48 h
A549 = assay: Growth inhibition of human A549/ATCC cells after 48 hrs by SRB protein assay; settings: A549, 48 h
IGROV-1 = assay: Growth inhibition of human IGROV1 cells after 48 hrs by SRB protein assay; settings: IGROV-1, 48 h
CCRF-CEM = assay: Growth inhibition of human CCRF-CEM cells after 48 hrs by SRB protein assay
BT-549 = assay: Growth inhibition of human BT549 cells after 48 hrs by SRB protein assay; settings: BT-549, 48 h
Hs-578T = assay: Growth inhibition of human HS578T cells after 48 hrs by SRB protein assay
RPMI-8226 = assay: Growth inhibition of human RPMI8226 cells after 48 hrs by SRB protein assay; settings: RPMI-8226, 48 h
MCF7 [1] = assay: Anticancer activity against human MCF7 cells assessed as growth of cells at 100 uM relative to untreated cells
K562 = assay: Growth inhibition of human K562 cells after 48 hrs by SRB protein assay; settings: K562, 48 h
MOLT-4 = assay: Growth inhibition of human MOLT4 cells after 48 hrs by SRB protein assay; settings: MOLT-4, 48 h
EKVX = assay: Growth inhibition of human EKVX cells after 48 hrs by SRB protein assay
HOP-62 = assay: Growth inhibition of human HOP62 cells after 48 hrs by SRB protein assay; settings: HOP-62, 48 h
HOP-92 = assay: Growth inhibition of human HOP92 cells after 48 hrs by SRB protein assay; settings: HOP-92, 48 h
NCI-H226 = assay: Growth inhibition of human NCI-H226 cells after 48 hrs by SRB protein assay; settings: NCI-H226, 48 h
NCI-H322M = assay: Growth inhibition of human NCI-H322M cells after 48 hrs by SRB protein assay
NCI-H460 = assay: Growth inhibition of human NCI-H460 cells after 48 hrs by SRB protein assay; settings: NCI-H460, 48 h
NCI-H522 = assay: Growth inhibition of human NCI-H522 cells after 48 hrs by SRB protein assay; settings: NCI-H522, 48 h
COLO 205 = assay: Growth inhibition of human COLO205 cells after 48 hrs by SRB protein assay; settings: COLO 205, 48 h
HCC 2998 = assay: Growth inhibition of human HCC2998 cells after 48 hrs by SRB protein assay; settings: HCC 2998, 48 h
HCT-116 = assay: Growth inhibition of human HCT116 cells after 48 hrs by SRB protein assay; settings: HCT-116, 48 h
HCT-15 = assay: Growth inhibition of human HCT15 cells after 48 hrs by SRB protein assay; settings: HCT-15, 48 h
KM12 = assay: Growth inhibition of human KM12 cells after 48 hrs by SRB protein assay; settings: KM12, 48 h
SF-295 = assay: Growth inhibition of human SF295 cells after 48 hrs by SRB protein assay; settings: SF-295, 48 h
U-251 = assay: Growth inhibition of human U251 cells after 48 hrs by SRB protein assay; settings: U-251, 48 h
[2] = Growth inhibition of human MALME 3M cells after 48 hrs by SRB protein assay
M14 = assay: Growth inhibition of human M14 cells after 48 hrs by SRB protein assay; settings: M14, 48 h
SK-MEL-2 = assay: Growth inhibition of human SK-MEL-2 cells after 48 hrs by SRB protein assay; settings: SK-MEL-2, 48 h
SK-MEL-5 = assay: Growth inhibition of human SK-MEL-5 cells after 48 hrs by SRB protein assay; settings: SK-MEL-5, 48 h
UACC-257 = assay: Growth inhibition of human UACC257 cells after 48 hrs by SRB protein assay; settings: UACC-257, 48 h
UACC-62 = assay: Growth inhibition of human UACC62 cells after 48 hrs by SRB protein assay; settings: UACC-62, 48 h
RXF 393 = assay: Growth inhibition of human RXF393 cells after 48 hrs by SRB protein assay; settings: RXF 393, 48 h
TK-10 = assay: Growth inhibition of human TK10 cells after 48 hrs by SRB protein assay; settings: TK-10, 48 h
UO-31 = assay: Growth inhibition of human UO31 cells after 48 hrs by SRB protein assay; settings: UO-31, 48 h
MCF7 [3] = assay: Growth inhibition of human MCF7 cells after 48 hrs by SRB protein assay; settings: MCF7, 48 h
NCI/ADR-RES = assay: Growth inhibition of human NCI/ADR-RES cells after 48 hrs by SRB protein assay
MDA-MB-435 = assay: Growth inhibition of human MDA-MB-435 cells after 48 hrs by SRB protein assay; settings: MDA-MB-435, 48 h
[4] = Growth inhibition of human MDA-MB-231/ATCC cells after 48 hrs by SRB protein assay; settings: MDA-MB-231, 48 h

GI50 (OVCAR-5): 18.2 µM
GI50 (OVCAR-8): 22.4 µM
GI50 (SK-OV-3): > 100 µM
GI50 (A549): 61.7 µM
GI50 (CCRF-CEM): 20.4 µM
GI50 (BT-549): > 100 µM
GI50 (RPMI-8226): 25.1 µM
GI50 (K562): 31.6 µM
GI50 (MOLT-4): 28.8 µM
GI50 (NCI-H226): 22.9 µM
GI50 (NCI-H322M): 97.7 µM
GI50 (NCI-H460): > 100 µM
GI50 (NCI-H522): 19.5 µM
GI50 (COLO 205): 30.2 µM
GI50 (HCC 2998): > 100 µM
GI50 (HCT-116): 17 µM
GI50 (HCT-15): 24.5 µM
GI50 (U-251): 22.4 µM
GI50 (SK-MEL-2): > 100 µM
GI50 (SK-MEL-5): 17.4 µM
GI50 (MCF7 [3]): 25.1 µM
GI50 (MDA-MB-435): 26.3 µM
SMILES: COc1ccc(NC(=O)CC2Sc3ncnn3C2=O)cc1 (configuration not stated)
TGI (OVCAR-5; read-out: Log TGI (converted)): 32.4 µM
TGI (OVCAR-8; read-out: Log TGI (converted)): 46.8 µM
TGI (SK-OV-3; read-out: Log TGI (converted)): > 100 µM
TGI (A549; read-out: Log TGI (converted)): > 100 µM
GI50 (IGROV-1): 67.6 µM
TGI (IGROV-1; read-out: Log TGI (converted)): > 100 µM
TGI (CCRF-CEM; read-out: Log TGI (converted)): 41.7 µM
TGI (BT-549; read-out: Log TGI (converted)): > 100 µM
GI50 (Hs-578T): 25.7 µM
TGI (Hs-578T; read-out: Log TGI (converted)): 44.7 µM
TGI (RPMI-8226; read-out: Log TGI (converted)): 64.6 µM
Activity (MCF7 [1]): 0%
TGI (K562; read-out: Log TGI (converted)): > 100 µM
TGI (MOLT-4; read-out: Log TGI (converted)): 70.8 µM
GI50 (EKVX): 35.5 µM
TGI (EKVX; read-out: Log TGI (converted)): > 100 µM
GI50 (HOP-62): > 100 µM
TGI (HOP-62; read-out: Log TGI (converted)): > 100 µM
GI50 (HOP-92): 21.9 µM
TGI (HOP-92; read-out: Log TGI (converted)): 49 µM
TGI (NCI-H226; read-out: Log TGI (converted)): 42.7 µM
TGI (NCI-H322M; read-out: Log TGI (converted)): > 100 µM
TGI (NCI-H460; read-out: Log TGI (converted)): > 100 µM
TGI (NCI-H522; read-out: Log TGI (converted)): 43.7 µM
TGI (COLO 205; read-out: Log TGI (converted)): 79.4 µM
TGI (HCC 2998; read-out: Log TGI (converted)): > 100 µM
TGI (HCT-116; read-out: Log TGI (converted)): 30.9 µM
TGI (HCT-15; read-out: Log TGI (converted)): 52.5 µM
GI50 (KM12): > 100 µM
TGI (KM12; read-out: Log TGI (converted)): > 100 µM
GI50 (SF-295): > 100 µM
TGI (SF-295; read-out: Log TGI (converted)): > 100 µM
TGI (U-251; read-out: Log TGI (converted)): 44.7 µM
GI50 [2]: 17.4 µM
TGI ([2]; read-out: Log TGI (converted)): 33.9 µM
GI50 (M14): 18.2 µM
TGI (M14; read-out: Log TGI (converted)): 33.9 µM
TGI (SK-MEL-2; read-out: Log TGI (converted)): > 100 µM
TGI (SK-MEL-5; read-out: Log TGI (converted)): 35.5 µM
GI50 (UACC-257): 20 µM
TGI (UACC-257; read-out: Log TGI (converted)): 36.3 µM
GI50 (UACC-62): > 100 µM
TGI (UACC-62; read-out: Log TGI (converted)): > 100 µM
GI50 (RXF 393): 15.5 µM
TGI (RXF 393; read-out: Log TGI (converted)): 41.7 µM
GI50 (TK-10): 16.6 µM
TGI (TK-10; read-out: Log TGI (converted)): 30.9 µM
GI50 (UO-31): 23.4 µM
TGI (UO-31; read-out: Log TGI (converted)): 53.7 µM
TGI (MCF7 [3]; read-out: Log TGI (converted)): 64.6 µM
GI50 (NCI/ADR-RES): 31.6 µM
TGI (NCI/ADR-RES; read-out: Log TGI (converted)): > 100 µM
TGI (MDA-MB-435; read-out: Log TGI (converted)): 70.8 µM
GI50 [4]: 21.4 µM
TGI ([4]; read-out: Log TGI (converted)): 38.9 µM
